US11306344B2, “Spectral intensity ratio (SIR) analysis for rapid live microbial enumeration” (TACOUNT EXACT LTD., priority 2015, dated 2022)
Like-named read-outs stand apart in the source and are kept apart here.

Legend:
E. coli #8739 [1] = assay: Fluorimeter (spectrofluorimetry) spectra, SIR and NVP of dye-stained bacteria; type: cell-based
E. coli #8739 [2] = assay: Flow-Cytometry SIR and NVP of dye-stained bacteria; type: cell-based; details: for NVP calculation / SIR calculation: 670 (14)/780 (60) nm channels
E. coli - #25922 = assay: Flow-Cytometry NVP of dye-stained bacteria; type: cell-based; details: FM 1-43 staining
E. coli - O157 = type: cell-based, E. coli O157:H7 (EHEC)
Entrobacter cloacae = assay: Flow-Cytometry NVP of dye-stained bacteria; type: cell-based, E. cloacae
Entrobacter aerogenes = assay: Flow-Cytometry NVP of dye-stained bacteria; type: cell-based, E. aerogenes
Pseudomonas aeruginosa = assay: Flow-Cytometry NVP of dye-stained bacteria; type: cell-based, Ps. Aeruginosa
Enterococcus faecalis = assay: Flow-Cytometry SIR and NVP of dye-stained bacteria; type: cell-based, E. faecalis
Bacillus subtillis = assay: Flow-Cytometry NVP of dye-stained bacteria; type: cell-based, B. subtilis
Enterococcus faecium = assay: Flow-Cytometry NVP of dye-stained bacteria; type: cell-based, E. faecium
S. aureus = assay: Flow-Cytometry NVP of dye-stained bacteria; type: cell-based
E. coli K12 (MG1655) = assay: Flow-Cytometry SIR analysis of E. coli K12 grown with ampicillin (FM 1-43 staining); type: cell-based; details: 1 hour
Procedure: The disclosed method was further validated in studies using E. coli K12 (MG1655, obtained from ATCC). After 5 hours of growth in medium, E. coli were divided into three groups: (A) grown for one hour with no antibiotics, (B) grown for one hour with 700 micrograms of ampicillin, and (C) grown for one hour with 1500 micrograms of ampicillin.
The bacteria were suspended in PBS and stained with FM® 1-43 (43N-(3-Triethylammoniumpropyl)-4-(4-(Dibutylamino) Styryl) Pyridinium Dibromide) ([…] as per the methodology described earlier.
Flow-Cytometry measurements of the stained bacterial samples were performed. In order to adjust the flow-cytometry to the spectral characterization as shown in the fluorescence spectra of the FM® 1-43 (43N-(3-Triethylammoniumpropyl)-4-(4-(Dibutylamino) Styryl) Pyridinium Dibromide) stained bacteria, the […] nm excitation channel of the flow-cytometry and two fluorescence channel using 530 (30) nm and 610 (20) nm as the λ1 and λ2 for the SIR calculation were used. The results are tabulated below and depicted in FIG. 14.

With CCCCN(CCCC)c1ccc(/C=C/c2cc[n+](CCC[N+](CC)(CC)CC)cc2)cc1.[Br-].[Br-] [FM® 1-43, N-(3-Triethylammoniumpropyl)-4-(4-(Dibutylamino) Styryl) Pyridinium Dibromide] the “Non-Viability Parameter (NVP)” value (E. coli #8739 [1]; 85°, 15 min) was about 5, the “SIR (I610/I530)” value (E. coli #8739 [1]; 85°, 15 min) was about 7 and the “Non-Viability Parameter (NVP)” value (E. coli #8739 [1]; Chlorine 0.05%) was about 5. The “SIR (I610/I530)” value (E. coli #8739 [1]; Chlorine 0.05%) was about 8, the “Non-Viability Parameter (NVP)” value (E. coli #8739 [1]; Ethanol 70%) was about 3 and the “SIR (I610/I530)” value (E. coli #8739 [1]; Ethanol 70%) was 4.4. The “SIR (I610/I530)” value (E. coli #8739 [1]; Live bacteria) was about 1.5, the “Non-Viability Parameter (NVP)” value (E. coli #8739 [1]; UV-LP 30 mJ) was 1 and the “SIR (I610/I530)” value (E. coli #8739 [1]; UV-LP 30 mJ) was 1. For the same molecule, the “Non-Viability Parameter (NVP)” value (E. coli #8739 [1]; UV-MP 30 mJ) was about 2, the “SIR (I610/I530)” value (E. coli #8739 [1]; UV-MP 30 mJ) was 3.7 and the “Non-Viability Parameter (NVP)” value (E. coli #8739 [2]; 85°, 15 min) was 9. For the same molecule, the “SIR (610/530) Ratio” value (E. coli #8739 [2]; 85°, 15 min) was 8.8, the “Non-Viability Parameter (NVP)” value (E. coli #8739 [2]; Chlorine 0.05%) was 10 and the “SIR (610/530) Ratio” value (E. coli #8739 [2]; Chlorine 0.05%) was 9.6. For the same molecule, the “Non-Viability Parameter (NVP)” value (E. coli #8739 [2]; Ethanol 70%) was 7, the “SIR (610/530) Ratio” value (E. coli #8739 [2]; Ethanol 70%) was 6.5 and the NVP values (E. coli #8739 [2]; FM 1-43 staining, Chlorine) was 10. The NVP values (E. coli #8739 [2]; FM 1-43 staining, Heated) was 9, the NVP values (E. coli #8739 [2]; FM 1-43 staining, UV-MP) was 5 and the “SIR (610/530) Ratio” value (E. coli #8739 [2]; Live bacteria) was 0.73. The “Non-Viability Parameter (NVP)” value (E. coli #8739 [2]; UV-LP 30 mJ) was 1, the “SIR (610/530) Ratio” value (E. coli #8739 [2]; UV-LP 30 mJ) was 0.7 and the “Non-Viability Parameter (NVP)” value (E. coli #8739 [2]; UV-MP 30 mJ) was 5. The “SIR (610/530) Ratio” value (E. coli #8739 [2]; UV-MP 30 mJ) was 3.5, the NVP values (E. coli - #25922; Chlorine) was 9 and the NVP values (E. coli - #25922; Heated) was 7. The NVP values (E. coli - #25922; UV-MP) was 5, the NVP values (E. coli - O157) was about 10 and the NVP values (E. coli - O157; FM 1-43 staining, Heated) was about 10. For the same molecule, the NVP values (Entrobacter cloacae; FM 1-43 staining, Chlorine) was 10, the NVP values (Entrobacter cloacae; FM 1-43 staining, Heated) was 8 and the NVP values (Entrobacter cloacae; FM 1-43 staining, UV-MP) was 5. For the same molecule, the NVP values (Entrobacter aerogenes; FM 1-43 staining, Chlorine) was 12, the NVP values (Entrobacter aerogenes; FM 1-43 staining, Heated) was 8 and the NVP values (Entrobacter aerogenes; FM 1-43 staining, UV-MP) was 4.5. For the same molecule, the NVP values (Pseudomonas aeruginosa; FM 1-43 staining, Chlorine) was 5, the NVP values (Pseudomonas aeruginosa; FM 1-43 staining, Heated) was 4.6 and the NVP values (Pseudomonas aeruginosa; FM 1-43 staining, UV-MP) was 3.2. For the same molecule, the NVP (Enterococcus faecalis; 530(30)/610(20), Chlorine) was 2, the NVP (Enterococcus faecalis; 530(30)/610(20), Heated) was 1.6 and the NVP (Enterococcus faecalis; 530(30)/610(20), UV-MP) was 1.1. For the same molecule, the “SIR: 530(30)/610(20)” value (Enterococcus faecalis; Chlorine) was 13, the NVP values (Enterococcus faecalis; FM 1-43 staining, Chlorine) was 2 and the NVP values (Enterococcus faecalis; FM 1-43 staining, Heated) was 1.6. The NVP values (Enterococcus faecalis; FM 1-43 staining, UV-MP) was 1.1, the “SIR: 530(30)/610(20)” value (Enterococcus faecalis; Heated) was 10.3 and the “SIR: 530(30)/610(20)” value (Enterococcus faecalis; Live) was 6.5. The “SIR: 530(30)/610(20)” value (Enterococcus faecalis; UV-MP) was 7.1, the NVP values (Bacillus subtillis; FM 1-43 staining, Chlorine) was 1.5 and the NVP values (Bacillus subtillis; FM 1-43 staining, Heated) was 1.2. The NVP values (Bacillus subtillis; FM 1-43 staining, UV-MP) was 1.2, the NVP values (Enterococcus faecium; FM 1-43 staining, Chlorine) was 1.7 and the NVP values (Enterococcus faecium; FM 1-43 staining, Heated) was 1.6. For the same molecule, the NVP values (S. aureus; FM 1-43 staining, Chlorine) was 1.7, the NVP values (S. aureus; FM 1-43 staining, Heated) was 1.6 and the NVP values (S. aureus; FM 1-43 staining, UV-MP) was 1.1.
For CCN(CC)c1ccc(C=CC=CC=Cc2cc[n+](CCC[N+](CC)(CC)CC)cc2)cc1.[Br-].[Br-] [FM® 4-64, N-(3-Triethylammoniumpropyl)-4-(6-(4-(Diethylamino) Phenyl) Hexatrienyl) Pyridinium Dibromide], the NVP calculation (E. coli #8739 [2]; Chlorinated) was 3.4, the SIR calculation (E. coli #8739 [2]; Chlorinated) was 12 and the NVP calculation (E. coli #8739 [2]; Heated (85°, 15 min)) was 4. For the same molecule, the SIR calculation (E. coli #8739 [2]; Heated (85°, 15 min)) was 14, the SIR calculation (E. coli #8739 [2]; Live) was 3.5 and the NVP calculation (E. coli #8739 [2]; UV-MP) was 3.7. It also gave an SIR calculation (E. coli #8739 [2]; UV-MP) of 13, an NVP values (E. coli #8739 [2]; FM 4-64 staining, Chlorine) of 3.4 and an NVP values (E. coli #8739 [2]; FM 4-64 staining, Heated) of 4. For the same molecule, the NVP values (E. coli #8739 [2]; FM 4-64 staining, UV-MP) was 3.7, the NVP values (Entrobacter cloacae; FM 4-64 staining, Chlorine) was 4.5 and the NVP values (Entrobacter cloacae; FM 4-64 staining, Heated) was 3.7. The NVP values (Entrobacter cloacae; FM 4-64 staining, UV-MP) was 2.5, the NVP values (Entrobacter aerogenes; FM 4-64 staining, Chlorine) was 4.5 and the NVP values (Entrobacter aerogenes; FM 4-64 staining, Heated) was 3.3. It also gave an NVP values (Entrobacter aerogenes; FM 4-64 staining, UV-MP) of 1.7, an NVP values (Pseudomonas aeruginosa; FM 4-64 staining, Chlorine) of 2 and an NVP values (Pseudomonas aeruginosa; FM 4-64 staining, Heated) of 1.8. The NVP (Enterococcus faecalis; 670(14)/780(60), Chlorine) was 2.9, the NVP (Enterococcus faecalis; 670(14)/780(60), Heated) was 3 and the NVP (Enterococcus faecalis; 670(14)/780(60), UV-MP) was 1.2. For the same molecule, the “SIR: 670(14)/780(60)” value (Enterococcus faecalis; Chlorine) was 19.7, the NVP values (Enterococcus faecalis; FM 4-64 staining, Chlorine) was 2.9 and the NVP values (Enterococcus faecalis; FM 4-64 staining, Heated) was 3. For the same molecule, the NVP values (Enterococcus faecalis; FM 4-64 staining, UV-MP) was 1.2, the “SIR: 670(14)/780(60)” value (Enterococcus faecalis; Heated) was 20 and the “SIR: 670(14)/780(60)” value (Enterococcus faecalis; Live) was 6.7. The “SIR: 670(14)/780(60)” value (Enterococcus faecalis; UV-MP) was 8.1, the NVP values (Bacillus subtillis; FM 4-64 staining, Chlorine) was 1.5 and the NVP values (Bacillus subtillis; FM 4-64 staining, Heated) was 1.8. It also gave an NVP values (Enterococcus faecium; FM 4-64 staining, Chlorine) of 3, an NVP values (Enterococcus faecium; FM 4-64 staining, Heated) of 3 and an NVP values (S. aureus; FM 4-64 staining, Chlorine) of 2.4. For the same molecule, the NVP values (S. aureus; FM 4-64 staining, Heated) was 3 and the NVP values (S. aureus; FM 4-64 staining, UV-MP) was 1.1.
CC1(C)S[C@@H]2[C@H](NC(=O)[C@H](N)c3ccccc3)C(=O)N2[C@H]1C(=O)O [ampicillin] was tested, and the “% from population” value (E. coli K12 (MG1655); 700 μg ampicillin, DEAD gate) was 15%, the SIR (E. coli K12 (MG1655); 700 μg ampicillin, DEAD gate) was 4.4 and the “% from population” value (E. coli K12 (MG1655); 700 μg ampicillin, LIVE gate) was 83.7%. The SIR (E. coli K12 (MG1655); 700 μg ampicillin, LIVE gate) was 1, the “% from population” value (E. coli K12 (MG1655); 1500 μg ampicillin, DEAD gate) was 20% and the SIR (E. coli K12 (MG1655); 1500 μg ampicillin, DEAD gate) was 5.3. For the same molecule, the “% from population” value (E. coli K12 (MG1655); 1500 μg ampicillin, LIVE gate) was 78% and the SIR (E. coli K12 (MG1655); 1500 μg ampicillin, LIVE gate) was 1.
